This is an account of results in patent publication US7566462B2, “Stable tablet formulation” (BioMarin Pharmaceutical Inc., priority 2004, dated 2009).

For data set [1] the following is noted: room temperature; Berneggar and Blau 2002; cited from earlier work.
A short description of data set [2]: Solid-state stability and hygroscopicity of polymorph B. In kind it is physicochemical.

Take `C[C@H](O)[C@H](O)[C@H]1CNc2nc(N)[nH]c(=O)c2N1` [BH4, Tetrahydrobiopterin]: the shelf-life in data set [1] was < 8 h.

Consider `C[C@H](O)[C@H](O)[C@H]1CNc2nc(N)[nH]c(=O)c2N1.Cl.Cl` [polymorph B, (6R)-5,6,7,8-tetrahydrobiopterin dihydrochloride], for which, in data set [2], the hygroscopicity result was “slightly hygroscopic” and the thermodynamic stability result is “highest thermodynamic stability above about 20 °C”. Moreover, the “behaviour at high humidity” value in data set [2] (percent relative humidity approaches 80%) was “appears to take up much more water, loses its crystalline form, and becomes labile to oxidation”. Also, the “stability of the anhydrous polymorph” value in data set [2] (room temperature, atmospheric oxygen, normal humidity) was “stable at room temperature to atmospheric oxygen and normal humidity”.
